# Results as given in US10435399B2, “HDAC6 inhibitory heterocyclic compound” (TAKEDA PHARMACEUTICAL COMPANY LIMITED, priority 2017, dated 2019).
# Target: T1, HDAC6 enzyme (Homo sapiens, UniProt Q9UBN7)
# T1 construct: transducing full length HDAC6 gene into Sf-9 insect cells; GST; purchased SignalChem; host or cells: Sf-9 insect cells
# T1 sequence (Q9UBN7 1-1215): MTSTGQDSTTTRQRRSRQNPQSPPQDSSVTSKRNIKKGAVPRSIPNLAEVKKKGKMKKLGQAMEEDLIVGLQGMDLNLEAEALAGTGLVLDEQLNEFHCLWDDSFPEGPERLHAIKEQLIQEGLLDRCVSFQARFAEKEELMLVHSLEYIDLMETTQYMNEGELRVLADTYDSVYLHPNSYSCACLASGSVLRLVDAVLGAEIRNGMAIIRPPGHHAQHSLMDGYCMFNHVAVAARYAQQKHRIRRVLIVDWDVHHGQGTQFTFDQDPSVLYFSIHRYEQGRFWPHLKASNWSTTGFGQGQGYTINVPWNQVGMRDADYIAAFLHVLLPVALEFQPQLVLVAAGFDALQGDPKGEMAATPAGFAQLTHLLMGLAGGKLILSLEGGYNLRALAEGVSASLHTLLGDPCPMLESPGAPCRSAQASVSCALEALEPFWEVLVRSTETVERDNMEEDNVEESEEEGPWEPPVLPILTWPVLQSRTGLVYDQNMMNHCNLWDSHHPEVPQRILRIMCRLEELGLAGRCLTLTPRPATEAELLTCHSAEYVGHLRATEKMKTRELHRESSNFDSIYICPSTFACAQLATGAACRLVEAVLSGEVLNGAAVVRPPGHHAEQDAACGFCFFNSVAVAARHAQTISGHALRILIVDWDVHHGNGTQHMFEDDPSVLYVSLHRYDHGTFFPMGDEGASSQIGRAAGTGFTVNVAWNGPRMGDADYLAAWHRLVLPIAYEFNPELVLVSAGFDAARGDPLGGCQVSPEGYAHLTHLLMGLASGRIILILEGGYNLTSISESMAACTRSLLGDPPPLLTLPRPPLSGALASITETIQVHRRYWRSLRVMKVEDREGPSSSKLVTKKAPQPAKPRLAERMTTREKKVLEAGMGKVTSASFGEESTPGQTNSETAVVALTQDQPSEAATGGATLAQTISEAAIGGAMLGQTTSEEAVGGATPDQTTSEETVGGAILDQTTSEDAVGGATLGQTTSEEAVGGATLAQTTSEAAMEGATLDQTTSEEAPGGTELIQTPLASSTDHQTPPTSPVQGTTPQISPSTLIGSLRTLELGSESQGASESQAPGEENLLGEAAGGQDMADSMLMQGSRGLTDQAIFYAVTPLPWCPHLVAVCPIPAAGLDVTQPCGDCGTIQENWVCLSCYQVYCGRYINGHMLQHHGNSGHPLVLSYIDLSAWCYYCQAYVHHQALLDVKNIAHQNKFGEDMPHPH
# Experiment: HDAC6 enzyme inhibitory activity (HDAC-Glo I/II Assay kit)
# Type: biochemical
# Conditions: 10 μM; wells without enzyme = 100% inhibition
# Protocol: HDAC6 enzyme prepared by transducing full length HDAC6 gene into Sf-9 insect cells and purifying by GST affinity column were purchased from SignalChem. Using this enzyme, HDAC6 enzyme inhibitory activities of the compound of the present invention were evaluated. Enzymes were used after preserved at −70° C. HDAC6 enzyme inhibitory activity of the compound of the present invention was measured using HDAC-Glo™ I/II Assay kit (Promega) according to the following experimental method. The test compound diluted with assay buffer (24 mM Tris-HCl (pH 7.5), 1 mM MgCl2, 0.35 mM KCl, 135 mM NaCl, 0.6 mM Glutathione, 0.01% Tween-20) was added to a 384-well plate by each 2 μL. Then, HDAC6 enzyme solution diluted with assay buffer was added thereto by each 4 μL, and the plate was incubated at room temperature for 60 min. After incubated, HDAC substrate-Developer solution prepared according to Promega protocol attached to the assay kit was added to the 384-well plate by each 2 μL, and the enzyme reaction was started. After reacting at room temperature for 20 min, luminescence level was measured using plate reader Envision (PerkinElmer). The inhibitory activity of each compound of Example was calculated as a relative activity value when luminescence level in wells without enzyme is considered as 100% inhibition.
row,SMILES,HDAC6 inhibitory rate (%) (10 μM)
1,"O=C1c2cc(-c3nnc(C(F)F)o3)ccc2CN1N1CCC(F)(F)CC1c1ccc(F)cn1 (stereo not drawn) [Example 612, 2-(4,4-Difluoro-2-(5-fluoropyridin-2-yl)piperidin-1-yl)-6-(5-(difluoromethyl)-1,3,4-oxadiazol-2-yl)isoindolin-1-one (Optical Isomer)]",99
2,"O=C1c2cc(-c3nnc(C(F)F)o3)ccc2CN1N1CCC(F)(F)CC1c1cccc(F)c1 (stereo not drawn) [Example 565, 2-(4,4-difluoro-2-(3-fluorophenyl)piperidin-1-yl)-6-(5-(difluoromethyl)-1,3,4-oxadiazol-2-yl)isoindolin-1-one (optical isomer)]",100
3,"O=C1c2cc(-c3nnc(C(F)F)o3)cnc2CN1[C@@H]1CCCC[C@H]1Oc1ccc(F)cc1 (relative stereo) [Example 552, 3-(5-(difluoromethyl)-1,3,4-oxadiazol-2-yl)-6-((1R*,2R*)-2-(4-fluorophenoxy)cyclohexyl)-6,7-dihydro-5H-pyrrolo[3,4-b]pyridin-5-one (optical isomer)]",100

# Same assay, conditions: 10 μM; wells without enzyme = 100% inhibition; read-out: HDAC6 inhibitory rate (%) (10 μM)
row,SMILES,inhibition at 10 µM [%]
1,"O=C1c2cc(-c3nnc(C(F)F)o3)cc(F)c2CN1C[C@H]1CC(F)(F)CN1C(=O)c1ccccc1 [Example 429, 2-(((2R)-1-benzoyl-4,4-difluoro-pyrrolidin-2-yl)methyl)-6-(5-(difluoro-methyl)-1,3,4-oxadiazol-2-yl)-4-fluoroiso-indolin-1-one]",97
2,"Cn1cc(C(=O)c2ccccc2)c(N2Cc3ccc(-c4nnc(C(F)F)o4)cc3C2=O)n1 [Example 592, 2-(4-benzoyl-1-methyl-1H-pyrazol-3-yl)-6-(5-(difluoromethyl)-1,3,4-oxadiazol-2-yl)isoindolin-1-one]",99
3,"O=C(C1CC1)N1CC[C@@H](N2Cc3ncc(-c4nnc(C(F)F)o4)cc3C2=O)[C@H](c2ccc(F)cc2)C1 [Example 498, 6-((3R,4R)-1-(cyclopropyl-carbonyl)-3-(4-fluorophenyl)piperidin-4-yl)-3-(5-(difluoro-methyl)-1,3,4-oxadiazol-2-yl)-6,7-dihydro-5H-pyrrolo [3,4-b]pyridin-5-one]",100
4,"O=C1c2cc(-c3nnc(C(F)F)o3)ccc2CN1c1ccc(F)cc1-n1cc(F)cn1 [Example 452, 6-(5-(difluoromethyl)-1,3,4-oxadiazol-2-yl)-2-(4-fluoro-2-(4-fluoro-1H-pyrazol-1-yl)phenyl)isoindolin-1-one]",99
5,"O=C(N[C@@H]1CCCC[C@H]1N1Cc2ccc(-c3nnc(C(F)F)o3)cc2C1=O)c1ccccn1 [Example 105, N-((1R,2R)-2-(6-(5-(difluoromethyl)-1,3,4-oxadiazol-2-yl)-1-oxo-1,3-dihydro-2H-isoindol-2-yl)cyclohexyl)pyridine-2-carboxamide]",98
6,"CC(C)(C)OC(=O)N1CC[C@@H](N2Cc3ccc(-c4nnc(C(F)F)o4)cc3C2=O)[C@@H](c2ccccc2)C1 [Example 125, tert-butyl (3S,4R)-4-(6-(5-(difluoromethyl)-1,3,4-oxadiazol-2-yl)-1-oxo-1,3-dihydro-2H-isoindol-2-yl)-3-phenylpiperidine-1-carboxylate]",98
7,"O=C1c2cc(-c3nnc(C(F)F)o3)cc(F)c2CN1[C@@H]1COCC[C@H]1NC(=O)C1(C(F)(F)F)CC1 [Example 176, N-((3S,4R)-3-(6-(5-(difluoromethyl)-1,3,4-oxadiazol-2-yl)-4-fluoro-1-oxo-1,3-dihydro-2H-isoindol-2-yl)tetrahydro-2H-pyran-4-yl)-1-(trifluoromethyl)cyclopropanecarboxamide]",100
8,"CC(C)(CF)OC(=O)N[C@H]1[C@H](N2Cc3ccc(-c4nnc(C(F)F)o4)cc3C2=O)CCCC1(F)F [Example 582, 1-fluoro-2-methylpropan-2-yl ((1S,6R)-6-(6-(5-(difluoromethyl)-1,3,4-oxadiazol-2-yl)-1-oxo-1,3-dihydro-2H-isoindol-2-yl)-2,2-difluorocyclohexyl)carbamate]",100
